In patent US20240342201A1, “ASYMMETRIC GPR84 ANTAGONIST AND USE THEREOF” (priority 2021, published 2024):
Like-named read-outs stand apart in the source and are kept apart here.

Target: GPR84 (Homo sapiens, UniProt Q9NQS5)
Assay: GPR84 antagonistic activity, calcium flux (Fluo-4) assay with agonist 6-OAU
Assay type: cell-based
Parameters: expressed in transfected cells; host or cells: HEK293
Protocol: The human GPR84 cell line was obtained by transfecting a HEK293 cell line with a plasmid encoding GPR84 and Gα16 proteins. Fluorescent dye Fluo-4AM was purchased from Invitrogen.
Intracellular Ca^2+ ion is a very important second messenger of G protein-coupled receptor signaling pathway. […] Fluo-4 is a Ca^2+ ion-specific fluorescent probe that binds quantitatively to Ca^2+ ions and emits fluorescence.
Detection of receptor inhibitory effect by GPR84 antagonist: After incubated with fluorescent dye Fluo-4, GPR84 cells were incubated with different concentrations of antagonistic compounds for a period of time to occupy the binding site of agonist to GPR84 (antagonistic binding site). A certain concentration of agonist (6-n-octylaminouracil, 6-OAU) was added to compete with the antagonist compound for binding sites. […] The half-inhibitory concentration (IC50) of the compound was calculated by using GraphPad PRISM software.
The above ingredients were weighed and dissolved in ultrapure water. pH was adjusted to 7.4 by using hydrochloric acid or NaOH solution. The mixture was filtered and stored at 4° C. for one month.
The buffer was prepared on site.
The cells were seeded in a 96-well plate at a density of 4×10^4 cells/well. After 24 hours of culture, the culture medium was removed, and 40 μL of Fluo-4AM fluorescent staining solution was added to each well and incubated in a 37° C. incubator for 40 minutes. After the dye was aspirated and discarded, 50 μL of the tested compound was added and incubated at room temperature for 10 minutes.

[1] = IC50, HEK293 cells with GPR84 and Gα16, Fluo-4 calcium signal, agonist 6-OAU around EC80

Chain of GPR84 (Q9NQS5 whole entry): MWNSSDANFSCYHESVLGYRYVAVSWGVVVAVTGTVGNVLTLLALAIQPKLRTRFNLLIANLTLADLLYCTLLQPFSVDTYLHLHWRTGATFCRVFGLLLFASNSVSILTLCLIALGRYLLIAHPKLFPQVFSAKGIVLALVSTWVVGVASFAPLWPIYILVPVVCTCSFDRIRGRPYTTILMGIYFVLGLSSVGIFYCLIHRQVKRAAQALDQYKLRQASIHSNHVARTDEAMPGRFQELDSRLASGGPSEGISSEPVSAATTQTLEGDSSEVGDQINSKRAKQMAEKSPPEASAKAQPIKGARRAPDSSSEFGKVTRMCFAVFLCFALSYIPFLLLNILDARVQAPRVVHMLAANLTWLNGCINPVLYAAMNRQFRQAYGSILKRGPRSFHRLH

Compound	IC50 [1] [nM]	IC50 [nM]	also measured
CC1(C)[C@@H]2CC[C@@]1(C)[C@H](OP(=O)(O)OC1=Cc3c(Cl)cccc3Sc3ccccc31)C2 (racemic) [LSX476b]	< 100	–	–
CC1(C)[C@H]2CC[C@]1(C)[C@H](OP(=O)(O)OC1=Cc3c(Cl)cccc3Sc3ccccc31)C2 (racemic) [LSX476d]	100 to 1000	–	–
COc1cccc2c1Sc1ccccc1C=C2OP(=O)(O)OC [LSX350]	1000 to 10000	–	–
COc1cccc2c1Sc1ccccc1C=C2OP(=O)(O)OC1CCOC1 (stereo not shown) [LSX406]	–	1000 to 10000	–
CCCCCCOP(=O)(O)OC1=Cc2ccccc2Sc2c(OC)cccc21 [LSX420-3]	100 to 1000	–	–
CC1(C)[C@@H]2CC[C@@](C)(C2)[C@@H]1OP(=O)(O)OC1=Cc2ccccc2Oc2ccccc21 [LSX426j]	1000 to 10000	–	–
COc1cccc2c1Sc1ccccc1C=C2OP(=O)(O)Oc1ccc(F)cc1 [LSX430]	–	1000 to 10000	–
COc1cccc2c1Sc1ccccc1C=C2OP(=O)(O)N1CCC(C)(C)CC1 [LSX431]	–	–	IC50 (HEK293 cells with GPR84 and Gα16, Fluo-4 calcium signal, agonist 6-OAU around EC80, read-out: IC50): 1000 to 10000 nM
COc1cccc2c1Sc1ccccc1C=C2OP(=O)(O)OC1CCCCC1C (stereo not shown) [LSX432-2a]	1000 to 10000	–	–
COc1cccc2c1Sc1ccccc1C=C2OP(=O)(O)OC1CCC(C)CC1 (stereo not shown) [LSX432-2c]	1000 to 10000	–	–
CCCCCCCCP(=O)(O)OC1=Cc2ccccc2Sc2c(OC)cccc21 [LSX432]	–	100 to 1000	–
COc1cccc2c1Sc1ccccc1C=C2OP(=O)(O)OC1COC(C)(C)C1 (stereo not shown) [LSX434-2]	–	–	IC50 (read-out: IC50): 1000 to 10000 nM
COc1cccc2c1Sc1ccccc1C=C2OP(=O)(O)OCCc1ccccc1 [LSX440]	1000 to 10000	–	–
COc1ccc(OP(=O)(O)OC2=Cc3ccccc3Sc3c(OC)cccc32)cc1 [LSX442]	–	100 to 1000	–
CC1(C)[C@H]2CC[C@]1(C)[C@H](OP(=O)(O)OC1=Cc3ccccc3Sc3ccccc31)C2 [LSX442a]	100 to 1000	–	–
CC1(C)[C@@H]2CC[C@@](C)(C2)[C@@H]1OP(=O)(O)OC1=Cc2ccccc2Sc2ccccc21 [LSX442j]	1000 to 10000	–	–
COc1cccc2c1Sc1ccccc1C=C2OP(=O)(O)OCC1CC2CCC1C2 (stereo not shown) [LSX444-2]	100 to 1000	–	–
COc1cccc2c1Sc1ccccc1C=C2OP(=O)(O)OC1C(C)CCCC1C (stereo not shown) [LSX446-2]	1000 to 10000	–	–
CC/C=C\CCCCOP(=O)(O)OC1=Cc2ccccc2Sc2c(OC)cccc21 [LSX446]	100 to 1000	–	–
CCCCCCCCOP(=O)(O)OC1=Cc2c(Cl)cccc2Sc2ccccc21 [LSX452]	100 to 1000	–	–

Compound	IC50 [1] [nM]	IC50 [nM]	also measured
COc1cccc2c1Sc1ccccc1C=C2OP(=O)(O)Oc1ccccc1C(C)C [LSX454]	–	1000 to 10000	–
COc1cccc2c1Oc1ccccc1C=C2OP(=O)(O)O[C@@H]1C(C)(C)[C@@H]2CC[C@@]1(C)C2 [LSX456j]	1000 to 10000	–	–
COc1cccc2c1Sc1ccccc1C=C2OP(=O)(O)Oc1ccc([N+](=O)[O-])cc1 [LSX457]	–	1000 to 10000	–
CC1(C)[C@H]2CC[C@]1(C)[C@H](OP(=O)(O)OC1=Cc3c(F)cccc3Sc3ccccc31)C2 [LSX460a]	100 to 1000	–	–
CC1(C)[C@@H]2CC[C@@](C)(C2)[C@@H]1OP(=O)(O)OC1=Cc2c(F)cccc2Sc2ccccc21 [LSX460j]	100 to 1000	–	–
CCCCCCCCCOP(=O)(O)OC1=Cc2ccccc2Sc2c(OC)cccc21 [LSX462-3]	100 to 1000	–	–
COc1cccc2c1Sc1ccccc1C=C2OP(=O)(O)Oc1cccc2ccccc12 [LSX462a]	–	100 to 1000	–
COc1cccc2c1Sc1ccccc1C=C2OP(=O)(O)Oc1ccc2ccccc2c1 [LSX462b]	–	100 to 1000	–
COc1cccc2c1Sc1ccccc1C=C2OP(=O)(O)OCCCCCCCCF [LSX466]	1000 to 10000	–	–
COc1cccc2c1Sc1ccccc1C=C2OP(=O)(O)Oc1cc(C)ccc1C(C)C [LSX468a]	–	100 to 1000	–
COc1cccc2c1Sc1ccccc1C=C2OP(=O)(O)Oc1cc(C(C)C)ccc1C [LSX468b]	–	100 to 1000	–
COc1cccc2c1Sc1ccccc1C=C2OP(=O)(O)OC12CC3CC(CC(C3)C1)C2 [LSX470a]	100 to 1000	–	–
COc1cccc2c1Sc1ccccc1C=C2OP(=O)(O)OC1C2CC3CC(C2)CC1C3 (stereo not shown) [LSX470b]	100 to 1000	–	–
COc1cccc2c1Sc1ccccc1C=C2OP(=O)(O)OC1CCC(C(C)(C)C)CC1 (stereo not shown) [LSX474-2]	100 to 1000	–	–
COc1cccc2c1Sc1ccccc1C=C2OP(=O)(O)OC1C(C)(C)CCCC1(C)C [LSX474-3]	100 to 1000	–	–
COc1cccc2c1Sc1ccccc1C=C2OP(=O)(O)O[C@@H]1C[C@H](C)CC[C@H]1C(C)C [LSX474a]	< 100	–	–
COc1cccc2c1Sc1ccccc1C=C2OP(=O)(O)O[C@H]1C[C@@H](C)CC[C@@H]1C(C)C [LSX474b]	< 100	–	–
CC1(C)[C@H]2CC[C@]1(C)[C@H](OP(=O)(O)OC1=Cc3c(Cl)cccc3Sc3ccccc31)C2 [LSX476a]	< 100	–	–
CC1(C)[C@@H]2CC[C@@]1(C)[C@@H](OP(=O)(O)OC1=Cc3c(Cl)cccc3Sc3ccccc31)C2 [LSX476c]	100 to 1000	–	–
CC1(C)[C@@H]2CC[C@@]1(C)[C@H](OP(=O)(O)OC1=Cc3c(Cl)cccc3Sc3ccccc31)C2 [LSX476g]	–	–	IC50 (HEK293 cells with GPR84 and Gα16, Fluo-4 calcium signal, agonist 6-OAU around EC80): < 100 nM

Compound	IC50 [1] [nM]	IC50 [nM]	also measured
CC1(C)[C@H]2CC[C@]1(C)[C@@H](OP(=O)(O)OC1=Cc3c(Cl)cccc3Sc3ccccc31)C2 [LSX476h]	100 to 1000	–	–
COc1cccc2c1Sc1ccccc1C=C2OP(=O)(O)Oc1cc(Cl)ccc1Cl [LSX480]	–	100 to 1000	–
CCCCCc1ccccc1OP(=O)(O)OC1=Cc2ccccc2Sc2c(OC)cccc21 [LSX482a]	–	100 to 1000	–
CCCCCc1cccc(OP(=O)(O)OC2=Cc3ccccc3Sc3c(OC)cccc32)c1 [LSX482b]	–	< 100	–
CCCCCc1ccc(OP(=O)(O)OC2=Cc3ccccc3Sc3c(OC)cccc32)cc1 [LSX482c]	–	100 to 1000	–
COc1cccc2c1Sc1ccccc1C=C2OP(=O)(O)Oc1ccc(Br)cc1 [LSX491a]	–	100 to 1000	–
COC(=O)CCCCCCCOP(=O)(O)OC1=Cc2ccccc2Sc2c(OC)cccc21 [LSX492]	1000 to 10000	–	–
COc1cccc2c1Sc1ccccc1C=C2OP(=O)(O)Oc1c(C(C)C)cccc1C(C)C [LSX496]	–	1000 to 10000	–
COc1cccc2c1Sc1ccccc1C=C2OP(=O)(O)OC12CC3CC(C)(CC(C)(C3)C1)C2 [LSX498]	100 to 1000	–	–
COc1cccc2c1Sc1ccccc1C=C2OP(=O)(O)Oc1ccc(Oc2ccccc2)cc1 [LSX504]	–	1000 to 10000	–
CC1(C)[C@H]2CC[C@]1(C)[C@H](OP(=O)(O)OC1=Cc3ccccc3Sc3c(OC(F)(F)F)cccc31)C2 [LSX526a]	100 to 1000	–	–
CC1(C)[C@@H]2CC[C@@](C)(C2)[C@@H]1OP(=O)(O)OC1=Cc2ccccc2Sc2c(OC(F)(F)F)cccc21 [LSX526j]	< 100	–	–
COc1cccc2c1Sc1ccccc1C=C2OP(=O)(O)OCCCCCCCCBr [LSX527]	100 to 1000	–	–
CC1CC(C(C)(C)C)C(OP(=O)(O)OC2=Cc3c(Cl)cccc3Sc3ccccc32)C(C(C)(C)C)C1 (stereo not shown) [LSX548]	1000 to 10000	–	–
CCCCCc1cc(CCCCC)cc(OP(=O)(O)OC2=Cc3ccccc3Sc3c(OC)cccc32)c1 [LSX552]	–	100 to 1000	–
COc1cccc2c1Sc1ccccc1C=C2OP(=O)(O)OC12CC3CC(C1)C(Nc1ncnc4[nH]ccc14)C(C3)C2 (stereo not shown) [LSX602]	< 100	–	–
COc1cccc2c1Sc1ccccc1C=C2OP(=O)(O)OC12CC3CC(C1)C(Nc1c(C(N)=O)cnc4[nH]ccc14)C(C3)C2 (stereo not shown) [LSX644]	1000 to 10000	–	–
COc1cccc2c1Sc1ccccc1C=C2OP(=O)(O)O[C@@H]1CC[C@@]2(C)C(CC[C@H]3[C@@H]4CC[C@H]([C@H](C)CCC(=O)O)[C@@]4(C)CC[C@@H]32)C1 (stereo partly shown) [LSX694]	100 to 1000	–	–
